The results in this text go back to patent publication US6653306B1, “Epoxy-steroidal aldosterone antagonist and angiotensin II antagonist combination therapy” (G.D. Searle & Co., priority 1995, dated 2003).

In experiment [1] the test system is rabbit aortic rings. Nature of the experiment: Assay B: In vitro vascular smooth muscle response for AII (antagonist activity, pA2). Format: cell-based. Particulars: Oryctolagus cuniculus, in vitro vascular smooth muscle response; two values per cell separated by / are separate determinations; read-out: Assay B pA2 (converted). The procedure:
Assay B: In Vitro Vascular Smooth Muscle-response for AII
The compounds of the invention were tested for antagonist activity in rabbit aortic rings. Male New Zealand white rabbits (2-2.5 kg) were sacrificed using an overdose of pentobarbital and exsanguinated via the carotid arteries. The thoracic aorta was removed, cleaned of adherent fat and connective tissue and then cut into 3-mm ring segments. The endothelium was removed from the rings by gently sliding a rolled-up piece of filter paper into the vessel lumen. The rings were then mounted in a water-jacketed tissue bath, maintained at 37° C., between moveable and fixed ends of a stainless steel wire with the moveable end attached to an FT03 Grass transducer coupled to a Model 7D Grass Polygraph for recording isometric force responses. The bath was filled with 20 ml of oxygenated (95% oxygen/5% carbon dioxide) Krebs solution of the following composition (mM): 130 NaCl, […], 15 KCl, 1.2 NaH2PO4, 1.2 MgSO4, 2.5 CaCl2, and 11.4 glucose. The preparations were equilibrated for one hour before approximately one gram of passive tension was placed on the rings. Angiotensin II concentration-response curves were then recorded (3×10^−10 to 1×10^−5 M). Each concentration of AII was allowed to elicit its maximal contraction, and then AII was washed out repeatedly for 30 minutes before rechallenging with a higher concentration of AII. Aorta rings were exposed to the test antagonist at […] for 5 minutes before challenging with AII. Adjacent segments of the same aorta ring were used for all concentration-response curves in the presence or absence of the test antagonist. The effectiveness of the test compound was expressed in terms of pA2 values and were calculated according to H. O. Schild [Br. J. Pharmacol, Chemother., 2,189-206 (1947)]. The pA2 value is the concentration of the antagonist which increases the EC50 value for AII by a factor of two. Each test antagonist was evaluated in aorta rings from two rabbits.

In experiment [2] the target is angiotensin II AT1 receptor. Nature of the experiment: Assay A: Angiotensin II binding activity (125I-AII displacement, rat uterine membrane preparation).

What is called IC50 is the concentration that gives 50% inhibition. Read a high IC50 as lower potency. Consider `CCCCc1nc(CCCN)nn1Cc1ccc(-c2ccccc2-c2nnn[nH]2)cc1` [Compound 72], for which, in experiment [1], the Kb was 776 nM. Besides, the 50% inhibitory concentration (IC50) in experiment [2] was determined as 83 nM.

Turning to `CCCCc1nc(CC(OCC)OCC)n(Cc2ccc(-c3ccccc3-c3nnn[nH]3)cc2)n1` [Compound 37], the Kb in experiment [1] is 126 nM. In experiment [2], this compound displayed an IC50 of 340 nM.

With `CCCCc1nn(CC(=O)OCC)c(=O)n1Cc1ccc(-c2ccccc2-c2nn[nH]n2)cc1` [Compound 86], the Kb in experiment [1] is 15.8 nM. This compound gave an IC50 in experiment [2] of 9 nM.

With `CCCCc1cn(CCCC)c(=O)n1Cc1ccc(-c2ccccc2-c2nnn[nH]2)cc1` [Compound 132], the Kb in experiment [1] was 2.51 nM. The same compound registered an IC50 in experiment [2] of 12 nM.

For `CCCCc1nc(C(F)F)nn1Cc1ccc(-c2ccccc2-c2nnn[nH]2)cc1` [Compound 47], the Kb in experiment [1] is 14.1 nM. Also, in experiment [2], the IC50 is 21 nM.

Consider `CCCCc1nc(CC23CC4CC(CC(C4)C2)C3)nn1Cc1ccc(-c2ccccc2-c2nnn[nH]2)cc1` [Compound 62], for which, in experiment [1], the Kb was 2.04 nM. The IC50 in experiment [2] stood at 26 nM.

As for `CCCCc1nc(CCC(C)C)n(Cc2ccc(-c3ccccc3-c3nnn[nH]3)cc2)n1` [Compound 16], the Kb in experiment [1] was 1.12 nM. Besides, in experiment [2], the IC50 was 6.4 nM.

Turning to `CCCCc1nc(CCCC)n(Cc2ccc(-n3c(Br)ccc3-c3nnn[nH]3)cc2)n1` [Compound 141], the Kb in experiment [1] was 9.55 nM. In experiment [2], this compound came in with an IC50 of 0.11 nM.

For `CCCCc1nc(-c2ccccc2)n(Cc2ccc(-c3ccccc3-c3nnn[nH]3)cc2)n1` [Compound 22], in experiment [1], the Kb is 251 nM. In experiment [2], the 50% inhibitory concentration (IC50) was found to be 460 nM.

Take `CCCCCn1nc(CCCC)n(Cc2ccc(-c3ccccc3-c3nn[nH]n3)cc2)c1=O` [Compound 90]: in experiment [1], the Kb is 1 nM. The same compound displayed a half-inhibitory concentration (IC50) in experiment [2] of 5.6 nM.

For `CCCCCc1nc(CCCCC)n(Cc2ccc(-c3ccccc3-c3nnn[nH]3)cc2)n1` [Compound 13], the Kb in experiment [1] was 2 nM.

As to `CCCCc1nc(CCC(=O)O)n(Cc2ccc(-c3ccccc3-c3nnn[nH]3)cc2)n1` [Compound 64], the Kb in experiment [1] was 100 nM. In experiment [2], this compound had an IC50 of 54 nM.

As to `CCCCn1nc(C(C#N)CCC)n(Cc2ccc(-c3ccccc3-c3nn[nH]n3)cc2)c1=O` (centres unmarked) [Compound 106], the Kb in experiment [1] is 20 nM. Moreover, the IC50 in experiment [2] stood at 48 nM.

For `CCCCc1nc(CCC2CCCCC2)n(Cc2ccc(-c3ccccc3-c3nnn[nH]3)cc2)n1` [Compound 42], in experiment [1], the Kb is 275 nM. In experiment [2], this compound came in with an IC50 of 370 nM.

Turning to `CCCCc1nn(CC(O)c2cc(OC)ccc2OC)c(=O)n1Cc1ccc(-c2ccccc2-c2nn[nH]n2)cc1` (centres unmarked) [Compound 98], the Kb in experiment [1] is 7.94 nM. In experiment [2], the IC50 was 22 nM.

On to `CCCCc1nc(C=O)nn1Cc1ccc(-c2ccccc2-c2nnn[nH]2)cc1` [Compound 49], for which the Kb in experiment [1] was 87.1 nM. The compound further registered an IC50 in experiment [2] of 120 nM.

With `CCCCc1nc(CNC(=O)OC(C)(C)C)nn1Cc1ccc(-c2ccccc2-c2nnn[nH]2)cc1` [Compound 35], in experiment [1], the Kb is 56.2 nM. Also, the concentration for half-maximal inhibition (IC50) in experiment [2] was determined as 41 nM.

`CCCCn1nc(C(F)(F)CC)nc1Cc1ccc(-c2ccccc2-c2nnn[nH]2)nc1` [Compound 168]: the Kb in experiment [1] is 20.4 nM. This compound also yielded a concentration for half-maximal inhibition (IC50) in experiment [2] of 420 nM.

As for `CCCCc1nn(CCCCC(=O)O)c(=O)n1Cc1ccc(-c2ccccc2-c2nn[nH]n2)cc1` [Compound 103], in experiment [1], the Kb was 10 nM. In experiment [2], this compound came in with an IC50 of 12 nM.

Regarding `CCCCc1nc(C(F)(F)Cc2ccccc2)nn1Cc1ccc(-c2ccccc2-c2nnn[nH]2)cc1` [Compound 51], the Kb in experiment [1] was 4.07 nM. Further, in experiment [2], the IC50 came to 8.7 nM.

On to `CCCCc1nc(CCCO)n(Cc2ccc(-c3ccccc3-c3nnn[nH]3)cc2)n1` [Compound 46], for which, in experiment [1], the Kb was 158 nM. In experiment [2], the IC50 turned out to be 110 nM.

Turning to `CCCCc1nc2c(O)nncc2n1Cc1ccc(-c2ccccc2-c2nnn[nH]2)cc1` [Compound 116], the Kb in experiment [1] was 316 nM.

For `CCCCc1nn(CC(OCc2ccccc2)c2ccccc2)c(=O)n1Cc1ccc(-c2ccccc2-c2nn[nH]n2)cc1` (centres unmarked) [Compound 97], the Kb in experiment [1] was 20 nM. This compound also registered an IC50 in experiment [2] of 280 nM.

In the case of `CCCCn1nc(C=O)nc1Cc1ccc(-c2ccccc2-c2nnn[nH]2)nc1` [Compound 179], in experiment [1], the Kb is 214 nM. The compound further gave a half-maximal inhibitory concentration (IC50) in experiment [2] of 310 nM.

`CCCCc1nn(C(CC(=O)OCC)C(=O)c2ccccc2)c(=O)n1Cc1ccc(-c2ccccc2-c2nn[nH]n2)cc1` (centres unmarked) [Compound 101]: the Kb in experiment [1] is 15.8 nM. The same compound returned an IC50 in experiment [2] of 36 nM.

Turning to `CCCn1nc(C(OC)OC)nc1Cc1ccc(-c2ccccc2-c2nnn[nH]2)nc1` [Compound 174], the Kb in experiment [1] was 51.3 nM. Besides, in experiment [2], the IC50 was 180 nM.

`CCCCc1nc(C(OC)OC)nn1Cc1ccc(-c2ccccc2-c2nnn[nH]2)cc1` [Compound 24]: the Kb in experiment [1] was 27.5 nM. Besides, in experiment [2], the IC50 was found to be 10 nM.

Consider `CCCCc1nc2c(Cl)nnc(Cl)c2n1Cc1ccc(-c2ccccc2-c2nnn[nH]2)cc1` [Compound 110], for which, in experiment [1], the Kb is 398 nM. This compound returned a concentration for half-maximal inhibition (IC50) in experiment [2] of 590 nM.

In the case of `CCCCc1nc(CCC)nn1Cc1ccc(-c2ccccc2-c2nnn[nH]2)cc1` [Compound 14], in experiment [1], the Kb is 1.45 nM. This compound gave an IC50 in experiment [2] of 7.2 nM.

Consider `CCCCn1nc(C(=O)NC)nc1Cc1ccc(-c2ccccc2-c2nnn[nH]2)nc1` [Compound 172], for which the Kb in experiment [1] is 70.8 nM. The same compound had an IC50 in experiment [2] of 70 nM.

On to `CCCCc1nc(CCc2ccccc2)n(Cc2ccc(-c3ccccc3-c3nnn[nH]3)cc2)n1` [Compound 25], for which the Kb in experiment [1] was 158 nM. In experiment [2], this compound had an IC50 of 480 nM.

For `CCCCc1nc(CCCO)nn1Cc1ccc(-c2ccccc2-c2nnn[nH]2)cc1` [Compound 45], the Kb in experiment [1] is 3.89 nM. The IC50 in experiment [2] was 4.4 nM.

With `CCCCc1nn(CC(=O)O)c(=O)n1Cc1ccc(-c2ccccc2-c2nn[nH]n2)cc1` [Compound 87], the Kb in experiment [1] was 15.8 nM. The IC50 in experiment [2] was determined as 91 nM.

On to `CCCCc1nc(Cc2ccc(-c3ccccc3-c3nnn[nH]3)cc2)nn1CCCC` [Compound 129], for which the Kb in experiment [1] is 5010 nM. In experiment [2], this compound gave an IC50 of 6700 nM.

With `CCCCc1nc(CCC)n(Cc2ccc(-c3ccccc3-c3nnn[nH]3)cc2)n1` [Compound 15], in experiment [1], the Kb is 4.9 nM. In experiment [2], this compound had an IC50 of 16 nM.

`CCCc1nc(CCC)n(Cc2ccc(-c3ccccc3-c3nnn[nH]3)nc2)n1` [Compound 246]: the Kb in experiment [1] was 34.7 nM. For the same compound, the IC50 in experiment [2] was 72 nM.

`CCCc1nc(CCC)n(Cc2ccc(-c3ccccc3-c3nnn[nH]3)cc2)n1` [Compound 12]: in experiment [1], the Kb was 2.19 nM. This compound also returned an IC50 in experiment [2] of 6 nM.

For the compound `CCCCc1nc(CCC(C)C)nn1Cc1ccc(-c2ccccc2-c2nnn[nH]2)cc1` [Compound 17], the Kb in experiment [1] was 2.29 nM. Moreover, in experiment [2], the IC50 was 4 nM.

For `CCCCc1nc(C(=O)Cc2ccccc2)nn1Cc1ccc(-c2ccccc2-c2nnn[nH]2)cc1` [Compound 50], the Kb in experiment [1] was 19.5 nM. Moreover, in experiment [2], the IC50 is 54 nM.

Turning to `CCCCn1nc(C(OC(C)C)OC(C)C)nc1Cc1ccc(-c2ccccc2-c2nnn[nH]2)nc1` [Compound 178], the Kb in experiment [1] was 28.8 nM. In experiment [2], this compound returned an IC50 of 88 nM.

For `CCCCc1c(C)n(CCCC)c(=O)n1Cc1ccc(-c2ccccc2-c2nnn[nH]2)cc1` [Compound 137], the Kb in experiment [1] was 5.01 nM. In experiment [2], this compound displayed an IC50 of 220 nM.

Take `CCCCc1nc(CC)n(Cc2ccc(-c3ccccc3C(=O)O)cc2)n1` [Compound 76]: the Kb in experiment [1] was 3020 nM. This compound had a concentration for half-maximal inhibition (IC50) in experiment [2] of 5400 nM.

With `CCCCc1nc(C)n(Cc2ccc(-c3ccccc3C(=O)O)cc2)n1` [Compound 77], the Kb in experiment [1] was 1700 nM. In addition, in experiment [2], the 50% inhibitory concentration (IC50) was found to be 15000 nM.

In the case of `CCCCc1nc(C(=O)NC)nn1Cc1ccc(-c2ccccc2-c2nnn[nH]2)nc1` [Compound 257], the Kb in experiment [1] was 234 nM. For the same compound, in experiment [2], the IC50 was determined as 160 nM.

On to `CCCCc1nn(CCCC)c(=O)n1Cc1ccc(-c2ccccc2-c2nnn[nH]2)cc1` [Compound 79], for which, in experiment [1], the Kb was 0.631 nM. Further, the IC50 in experiment [2] turned out to be 4.9 nM.

For `CCCCc1nc(C)nn1Cc1ccc(-c2ccccc2C(=O)O)cc1` [Compound 280], the Kb in experiment [1] was 389 nM. Besides, the IC50 in experiment [2] was 480 nM.

On to `CCCCc1nc(C2CCCCC2)n(Cc2ccc(-c3ccccc3-c3nnn[nH]3)cc2)n1` [Compound 65], for which the Kb in experiment [1] was 14.1 nM. For the same compound, the IC50 in experiment [2] turned out to be 23 nM.

With `CCCCc1nc(CCCC)n(Cc2ccc(-c3cnccc3-c3nnn[nH]3)cc2)n1` [Compound 244], the Kb in experiment [1] was 67.6 nM. The compound also gave an IC50 in experiment [2] of 150 nM.

As to `CCCCn1nc(C(=O)CCC)nc1Cc1ccc(-c2ccccc2-c2nnn[nH]2)nc1` [Compound 160], in experiment [1], the Kb was 13.5 nM. Also, the IC50 in experiment [2] worked out at 64 nM.

As for `CCCCc1nc2c(O)nnc(CCC)c2n1Cc1ccc(-c2ccccc2-c2nn[nH]n2)cc1` [Compound 114], the Kb in experiment [1] was 398 nM.

`CCCCc1nc2cnncc2n1Cc1ccc(-c2ccccc2-c2nnn[nH]2)cc1` [Compound 117]: the Kb in experiment [1] is 316 nM.
